From ChEMBL document CHEMBL1124450, “Identification of structural requirements for analogues of atrial natriuretic peptide (ANP) to discriminate between ANP receptor subtypes” (J Med Chem, 1989)
Residues, ends and D or L forms follow the SMILES beside them.

What was measured:
[1] = molecular target: T1, Atrial natriuretic peptide receptor (Homo sapiens, UniProt P20594+P16066+P17342); experiment: Inhibitory activity against guanylate cyclase coupled receptor binding site in rabbit lung by using [125I]-ANP-(103-126); type: protein assay, Oryctolagus cuniculus; conditions: target entry is the homologue from another species
T1 sequence (P20594 whole entry): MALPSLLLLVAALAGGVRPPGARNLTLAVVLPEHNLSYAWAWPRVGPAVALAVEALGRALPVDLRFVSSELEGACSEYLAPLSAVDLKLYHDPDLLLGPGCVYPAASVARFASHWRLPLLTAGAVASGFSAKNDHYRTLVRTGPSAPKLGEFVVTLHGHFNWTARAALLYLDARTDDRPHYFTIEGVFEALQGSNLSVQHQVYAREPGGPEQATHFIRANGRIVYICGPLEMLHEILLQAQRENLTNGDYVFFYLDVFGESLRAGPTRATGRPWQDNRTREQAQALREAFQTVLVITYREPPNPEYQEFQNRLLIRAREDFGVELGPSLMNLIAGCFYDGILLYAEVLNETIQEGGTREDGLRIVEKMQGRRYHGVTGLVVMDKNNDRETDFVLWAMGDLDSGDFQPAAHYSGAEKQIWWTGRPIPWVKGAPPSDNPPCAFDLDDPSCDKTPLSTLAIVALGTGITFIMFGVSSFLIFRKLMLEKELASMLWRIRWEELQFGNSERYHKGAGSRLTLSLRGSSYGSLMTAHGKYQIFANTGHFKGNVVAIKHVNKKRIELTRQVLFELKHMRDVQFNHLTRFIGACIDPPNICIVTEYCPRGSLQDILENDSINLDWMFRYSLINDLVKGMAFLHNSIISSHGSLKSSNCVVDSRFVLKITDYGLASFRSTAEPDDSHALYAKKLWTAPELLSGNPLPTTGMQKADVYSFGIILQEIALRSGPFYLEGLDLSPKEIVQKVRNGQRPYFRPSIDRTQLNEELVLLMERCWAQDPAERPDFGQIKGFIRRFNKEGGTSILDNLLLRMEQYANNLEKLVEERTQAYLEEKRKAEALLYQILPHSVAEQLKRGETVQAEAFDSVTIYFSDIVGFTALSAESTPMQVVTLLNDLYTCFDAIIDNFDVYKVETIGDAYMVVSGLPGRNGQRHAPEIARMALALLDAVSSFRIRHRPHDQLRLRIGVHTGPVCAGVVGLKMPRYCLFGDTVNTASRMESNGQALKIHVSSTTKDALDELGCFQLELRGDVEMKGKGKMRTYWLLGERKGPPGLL
T1 sequence (P16066 whole entry): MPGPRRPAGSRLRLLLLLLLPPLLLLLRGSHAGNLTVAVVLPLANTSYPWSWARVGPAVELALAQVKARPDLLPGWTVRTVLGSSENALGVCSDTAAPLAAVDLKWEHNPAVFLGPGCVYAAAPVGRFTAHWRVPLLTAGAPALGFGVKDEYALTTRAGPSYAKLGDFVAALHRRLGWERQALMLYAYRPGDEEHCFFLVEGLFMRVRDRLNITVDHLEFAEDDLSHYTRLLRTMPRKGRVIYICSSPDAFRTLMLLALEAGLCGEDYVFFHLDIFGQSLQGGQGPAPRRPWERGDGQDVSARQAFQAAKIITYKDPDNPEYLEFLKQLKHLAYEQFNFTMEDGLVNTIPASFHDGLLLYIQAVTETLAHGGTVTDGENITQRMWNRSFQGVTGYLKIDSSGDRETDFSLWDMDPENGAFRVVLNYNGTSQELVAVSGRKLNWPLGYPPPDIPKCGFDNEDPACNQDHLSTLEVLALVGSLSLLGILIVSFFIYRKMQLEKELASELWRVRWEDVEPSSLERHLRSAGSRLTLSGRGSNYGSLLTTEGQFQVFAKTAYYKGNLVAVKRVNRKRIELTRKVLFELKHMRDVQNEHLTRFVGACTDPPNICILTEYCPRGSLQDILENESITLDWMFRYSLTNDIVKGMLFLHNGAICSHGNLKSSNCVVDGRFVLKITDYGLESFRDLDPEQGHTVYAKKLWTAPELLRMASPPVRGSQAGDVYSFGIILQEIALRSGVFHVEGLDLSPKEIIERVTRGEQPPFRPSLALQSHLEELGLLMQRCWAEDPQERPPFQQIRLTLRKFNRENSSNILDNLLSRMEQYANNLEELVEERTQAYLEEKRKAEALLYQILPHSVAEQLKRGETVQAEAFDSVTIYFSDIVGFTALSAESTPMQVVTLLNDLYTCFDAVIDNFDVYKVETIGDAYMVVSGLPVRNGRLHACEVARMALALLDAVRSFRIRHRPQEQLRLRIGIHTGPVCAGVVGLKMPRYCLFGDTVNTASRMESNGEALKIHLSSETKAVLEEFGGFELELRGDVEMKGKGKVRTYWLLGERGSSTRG
T1 sequence (P17342 whole entry): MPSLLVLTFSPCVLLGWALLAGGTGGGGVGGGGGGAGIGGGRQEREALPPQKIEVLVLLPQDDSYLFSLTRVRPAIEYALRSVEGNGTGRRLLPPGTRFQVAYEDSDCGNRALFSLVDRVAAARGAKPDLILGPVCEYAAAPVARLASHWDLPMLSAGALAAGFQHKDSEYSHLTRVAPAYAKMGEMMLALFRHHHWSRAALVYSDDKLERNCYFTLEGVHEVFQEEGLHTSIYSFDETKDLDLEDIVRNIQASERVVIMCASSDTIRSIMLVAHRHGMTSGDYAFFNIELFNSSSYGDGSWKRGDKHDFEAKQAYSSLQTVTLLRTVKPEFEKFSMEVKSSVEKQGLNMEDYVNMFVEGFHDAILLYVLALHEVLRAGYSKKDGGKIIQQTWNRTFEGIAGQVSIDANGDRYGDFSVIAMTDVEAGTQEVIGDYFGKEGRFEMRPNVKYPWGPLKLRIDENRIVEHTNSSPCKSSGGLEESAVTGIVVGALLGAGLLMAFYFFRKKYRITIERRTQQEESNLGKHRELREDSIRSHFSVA

[2] = Inhibitory activity against non-guanylate cyclase receptor binding site in rabbit lung by using [125I]-ANP-(103-126); design: species or system Oryctolagus cuniculus
[3] = Ratio of IC50 of guanylate cyclase coupled receptor binding and non-guanylate cyclase coupled binding

| Compound | IC50 [1] [nM] | IC50 [2] [nM] | Ratio [3] |
| --- | --- | --- | --- |
| CC[C@H](C)[C@@H]1NC(=O)[C@H](CCCN=C(N)N)NC(=O)[C@H](CC(=O)O)NC(=O)[C@H]([C@@H](C)CC)NC(=O)[C@H](CCCN=C(N)N)NC(=O)CNC(=O)[C@@H](NC(=O)[C@H](CO)NC(=O)[C@@H](N)CO)CSSC[C@H](C(=O)N[C@@H](CC(N)=O)C(=O)N[C@@H](CO)C(=O)N[C@@H](Cc2ccccc2)C(=O)N[C@@H](CCCN=C(N)N)C(N)=O)NC(=O)CNC(=O)[C@H](CC(C)C)NC(=O)CNC(=O)[C@H](CO)NC(=O)CNC1=O | > 100 | 0.1 | > 1000 |
| CC[C@H](C)[C@H](NC(=O)[C@H](CCCN=C(N)N)NC(=O)[C@H](CC(=O)O)NC(=O)[C@@H](NC(=O)[C@H](CCCN=C(N)N)NC(=O)CNC(=O)CNC(=O)[C@H](Cc1ccccc1)NC(=O)[C@@H](N)CS)[C@@H](C)CC)C(=O)NCC(N)=O (H-CFGGRIDRIG-NH2) | > 100 | 0.28 | > 357 |
| CC[C@H](C)[C@H](NC(=O)[C@H](CCCN=C(N)N)NC(=O)[C@H](CC(=O)O)NC(=O)[C@@H](NC(=O)[C@H](CCCN=C(N)N)NC(=O)CNC(=O)CNC(=O)[C@H](Cc1ccccc1)NC(=O)[C@@H](N)CO)[C@@H](C)CC)C(=O)NCC(=O)N[C@@H](C)C(=O)N[C@@H](CCC(N)=O)C(=O)N[C@@H](CO)C(=O)NCC(=O)N[C@@H](CC(C)C)C(=O)NCC(=O)N[C@@H](CC(N)=O)C(=O)N[C@@H](CO)C(=O)N[C@@H](Cc1ccccc1)C(=O)N[C@@H](CCCN=C(N)N)C(=O)N[C@@H](Cc1ccc(O)cc1)C(=O)O (H-SFGGRIDRIGAQSGLGNSFRY-OH) | > 100 | 0.35 | > 285 |
| CC(C)C[C@H](NC(=O)[C@@H](N)CO)C(=O)N[C@@H](CCCN=C(N)N)C(=O)N[C@@H](CCCN=C(N)N)C(=O)N[C@@H](CO)C(=O)N[C@@H](CO)C(=O)N[C@@H](CS)C(=O)N[C@@H](Cc1ccccc1)C(=O)NCC(=O)NCC(=O)N[C@@H](CCCN=C(N)N)C(=O)O (H-SLRRSSCFGGR-OH) | > 100 | > 100 |  |
| CC[C@H](C)[C@@H]1NC(=O)[C@H](CCCN=C(N)N)NC(=O)[C@H](CC(=O)O)NC(=O)[C@H]([C@@H](C)CC)NC(=O)[C@H](CCCN=C(N)N)NC(=O)CNC(=O)CNC(=O)[C@H](Cc2ccccc2)NC(=O)[C@@H](NC(=O)[C@H](CO)NC(=O)[C@H](CO)NC(=O)[C@H](CCCN=C(N)N)NC(=O)[C@H](CCCN=C(N)N)NC(=O)[C@H](CC(C)C)NC(=O)[C@@H](N)CO)CSSC[C@@H](C(N)=O)NC(=O)[C@H](CCC(N)=O)NC(=O)[C@H](C)NC(=O)CNC1=O (HELM PEPTIDE1{S.L.R.R.S.S.C.F.G.G.R.I.D.R.I.G.A.Q.C.[am]}$PEPTIDE1,PEPTIDE1,7:R3-19:R3$$$V2.0) | 52 | 0.16 | 312 |
| CC[C@H](C)[C@@H]1NC(=O)[C@H](CCCN=C(N)N)NC(=O)[C@H](CC(=O)O)NC(=O)[C@H]([C@@H](C)CC)NC(=O)[C@H](CCCN=C(N)N)NC(=O)CNC(=O)CNC(=O)[C@H](Cc2ccccc2)NC(=O)[C@@H](NC(=O)[C@H](CO)NC(=O)[C@@H](N)CO)CSSC[C@@H](C(=O)N[C@@H](CC(N)=O)C(=O)N[C@@H](CO)C(=O)O)NC(=O)CNC(=O)[C@H](CC(C)C)NC(=O)CNC(=O)[C@H](CO)NC(=O)[C@H](CCC(N)=O)NC(=O)[C@H](C)NC(=O)CNC1=O (HELM PEPTIDE1{S.S.C.F.G.G.R.I.D.R.I.G.A.Q.S.G.L.G.C.N.S}$PEPTIDE1,PEPTIDE1,3:R3-19:R3$$$V2.0) | 36 | 0.78 | 46 |
| CC[C@H](C)[C@H](NC(=O)[C@H](CCCN=C(N)N)NC(=O)[C@H](CC(=O)O)NC(=O)[C@@H](NC(=O)[C@H](CCCN=C(N)N)NC(=O)CNC(C)=O)[C@@H](C)CC)C(=O)NCC(N)=O [GRIDRIG] (Ac-GRIDRIG-NH2) | > 100 | 65 | > 1.5 |
